{"source": "patent US20240216395A1", "about": "“19-NOR C3,3-DISUBSTITUTED C21 -N-PYRAZOLYL STEROID FOR USE IN TREATING MAJOR DEPRESSIVE DISORDER AND […]” (priority 2021, published 2024)", "key": {"[1]": {"system": "patients with MDD", "assay": "Phase 3 clinical trial of Compound (1) 30 mg in MDD : TEAEs", "type": "in vivo, human", "details": "previous Phase 3 clinical trial", "text": "The study design and results, if applicable, of the clinical trials identified by the NCT numbers are each incorporated by reference herein in its entirety.\nThe majority of patients receiving Compound (1) and experiencing a TEAE reported TEAEs mild and moderate in severity: clinical trial of Example 4 94%, Phase 2 clinical trial conducted by Applicant 100%, previous Phase 3 clinical trial conducted by Applicant 98%, and clinical trial of Example 1 95.0%."}, "[2]": {"system": "nondependent, recreational users of CNS depressants", "assay": "Abuse potential study: MOAA/S sedation scores (dose selection and main study)", "type": "in vivo, human", "details": "dose selection, 60, 80 or 90 mg", "experimental": "The first part of the study, dose selection, was a 3-cohort, randomized, double-blind, placebo-controlled, dose-escalation design to identify 2 doses higher than Compound (1)'s anticipated therapeutic dose (30 mg) to carry forward into the main study (FIG. 30A-30B) (U.S. Department of Health and Human Services Food and Drug Administration, Center for Drug Evaluation and Research (CDER). Assessment of abuse potential of drugs: guidance for industry. January, 2017; Griffiths R R, et al. Drug Alcohol Depend. 2003; 70(3):S41-54; Schoedel K, Sellers E. Clin Pharmacol Ther. 2008; 83(4):622-626). The 2 doses were selected based on their safety and tolerability in the dose selection phase, as assessed during sentinel dosing (described below) by the safety and tolerability endpoints (described below). […]\nMOAA/S scores were assessed before dose administrations and at multiple time points (1, 2, 3, 4, 5, 6, 7, 8, 10, 12, and 24 hours) after dosing using a 6-point scale, ranging from 0 (no response after painful trapezius squeeze) to 5 (responds readily to name spoken in a normal tone; Table 18). Electrocardiogram measures and the C-SSRS were assessed during screening, admission, at Day 3, and/or at early termination, and AEs/SAEs were assessed on an ongoing basis during enrollment in the study. […]"}}}
{"smiles": "C[C@@]1(O)CC[C@H]2[C@H](CC[C@@H]3[C@@H]2CC[C@]2(C)[C@@H](C(=O)Cn4cc(C#N)cn4)CC[C@@H]32)C1", "note": "[Compound (1), 1-(2-((3R,5R,8R,9R,10S,13S,14S,17S)-3-hydroxy-3,13-dimethylhexadecahydro-1H-cyclopenta[a]phenanthren-17-yl)-2-oxoethyl)-1H-pyrazole-4-carbonitrile]", "values": [{"measurement": "Patients with a TEAE whose TEAEs were mild and moderate in severity", "setting": "[1]", "value": 98, "unit": "%"}, {"measurement": "Time for all MOAA/S scores to return to baseline score of 5", "setting": "[2]", "value": "≤ 8", "unit": "hours postdose"}, {"measurement": "MOAA/S score (mild sedation) in 1 to 4 participants of at least 1 cohort", "setting": "[2]; 2-7 hours postdose", "value": "2-4"}]}
